In US20230146455A1, “TREATMENT OF INFLAMMATORY DISEASES WITH PEPTIDES AND PHARMACEUTICAL COMPOSITIONS” (Yuyu Pharma, Inc., priority 2020, published 2023):
Where “and” joins values, the source holds several entries; their conditions need not be identical. Identical values can stand only once. Where a SMILES comes first, the peptide text is derived from it. [ ]: non-standard residue; d: D form. Hyp = O=C(O)[C@@H]1C[C@@H](O)CN1

Test system: IFN-gamma
Test: Example 9 Luminex, LPS hPBMCs: IFN-gamma
Type: cell-based, human
Protocol: Treatment Human PBMCs were pretreated with YY-101, YDE-011 and YDE-043 or reference compound; Xiidra® at various concentration (ranging from 1 nM to 100 uM) for 2 h before stimulation. An equal volume of 0.5% DMSO was used as a vehicle control. Then, the cells were treated with LPS at 5 ug/ml. The supernatants from treated cells were harvested at 24 h and placed in a 96 well for Luminex cytokine & chemokine profiling using a Luminex 200 multiplex assay (Luminex; R&D system, USA).
The main study arm with triplicate wells per group in a 24-well plate: • 1. Blank • 2. PBMC: 0.5% DMSO • 3. PBMC+LPS (5 ug/ml) • 4. PBMC+YY-101 100 uM • 5. PBMC+YY-101 10 uM • 6. PBMC+YY-101 1 uM • 7. PBMC+YY-101 0.1 uM • 8. PBMC+YY-101 0.01 uM • 9. PBMC+LPS (5 ug/ml)+Xiidra®100 uM • 10. PBMC+LPS (5 ug/ml)+Xiidra® 10 uM • 11. PBMC+LPS (5 ug/ml)+Xiidra® 1 uM • 12. PBMC+LPS (5 ug/ml)+Xiidra®0.1 uM • 13. PBMC+LPS (5 ug/ml)+Xiidra®0.01 uM • 14. PBMC+LPS (5 ug/ml)+Xiidra®0.001 uM • 15. PBMC+LPS (5 ug/ml)+YY-101 100 uM • 16. PBMC+LPS (5 ug/ml)+YY-101 10 uM • 17. PBMC+LPS (5 ug/ml)+YY-101 1 uM • 18. PBMC+LPS (5 ug/ml)+YY-101 0.1 uM • 19. PBMC+LPS (5 ug/ml)+YY-101 0.01 uM • 20. PBMC+LPS (5 ug/ml)+YY-101 0.001 uM • 21. PBMC+LPS (5 ug/ml)+YDE-011 100 uM • 22. PBMC+LPS (5 ug/ml)+YDE-011 10 uM • 23. PBMC+LPS (5 ug/ml)+YDE-011 1 uM • 24. PBMC+LPS (5 ug/ml)+YDE-011 0.1 uM • 25. PBMC+LPS (5 ug/ml)+YDE-011 0.01 uM • 26. PBMC+LPS (5 ug/ml)+YDE-011 0.001 uM • 27. PBMC+LPS (5 ug/ml)+YDE-043 100 uM • 28. PBMC+LPS (5 ug/ml)+YDE-043 10 uM • 29. PBMC+LPS (5 ug/ml)+YDE-043 1 uM • 30. PBMC+LPS (5 ug/ml)+YDE-043 0.1 uM • 31. PBMC+LPS (5 ug/ml)+YDE-043 0.01 uM • 32. PBMC+LPS (5 ug/ml)+YDE-043 0.001 uM
Multiplex assay was used to measure 30 cytokines and chemokines. The 1:2, 1:10 and 1:200 diluted cell supernatant and serial dilution of the standard were dispensed into a 96 well plate at 50 ul/well. Then, the pre-mixed cocktail of antibody-coated magnetic beads was dispensed at 50 ul/well and incubated at room temperature for 2 h in a horizontal orbital microplate shaker at 800±500 rpm. The beads were washed using a magnetic device to prevent loss. The biotin-antibody was dispensed in 50 ul of each well and incubated at room temperature for 1 h in a shaker at 800±500 rpm. After washing, streptavidin-PE was added at 50 ul/well and incubated at room temperature for 30 min in a shaker under the same conditions. Finally, after washing, wash buffer (100 ul/well) was added to the plate and incubated in a shaker for 2 min. The Luminex™ 200 setting were set according to the manufacturer's protocol. The data was calculated with a standard five-parameter logistic nonlinear regression analysis of the data (xPonent software 4.2, USA). The levels of cytokine/chemokine are normalized to the live cell counts (1×10^5 cells/mL) and presented as concentrations per mL (pg/mL or ng/mL).

[1] = PBMC + LPS(5 ug/ml) + test article 0.001 uM, Mean
[2] = PBMC + LPS(5 ug/ml) + test article 0.001 uM, single replicates
[3] = PBMC + LPS(5 ug/ml) + test article 0.01 uM, Mean
[4] = PBMC + LPS(5 ug/ml) + test article 0.01 uM, single replicates
[5] = PBMC + LPS(5 ug/ml) + test article 0.1 uM, Mean
[6] = PBMC + LPS(5 ug/ml) + test article 0.1 uM, single replicates
[7] = PBMC + LPS(5 ug/ml) + test article 1 uM, Mean
[8] = PBMC + LPS(5 ug/ml) + test article 1 uM, single replicates
[9] = PBMC + LPS(5 ug/ml) + test article 10 uM, Mean
[10] = PBMC + LPS(5 ug/ml) + test article 10 uM, single replicates
[11] = PBMC + LPS(5 ug/ml) + test article 100 uM, Mean
[12] = PBMC + LPS(5 ug/ml) + test article 100 uM, single replicates

SMILES | Concentration (IFN-gamma) [1] [pg/mL] | conc/live cell (IFN-gamma) [1] [pg/10^5] | Concentration (IFN-gamma) [2] | conc/live cell (IFN-gamma) [2] | Concentration (IFN-gamma) [3] [pg/mL] | conc/live cell (IFN-gamma) [3] [pg/10^5] | Concentration (IFN-gamma) [4] | conc/live cell (IFN-gamma) [4] | Concentration (IFN-gamma) [5] [pg/mL] | conc/live cell (IFN-gamma) [5] [pg/10^5] | Concentration (IFN-gamma) [6] | conc/live cell (IFN-gamma) [6] | Concentration (IFN-gamma) [7] [pg/mL] | conc/live cell (IFN-gamma) [7] [pg/10^5] | Concentration (IFN-gamma) [8] | conc/live cell (IFN-gamma) [8] | Concentration (IFN-gamma) [9] [pg/mL] | conc/live cell (IFN-gamma) [9] [pg/10^5] | Concentration (IFN-gamma) [10] | conc/live cell (IFN-gamma) [10] | other results
CC(C)C[C@H](NC(=O)CNC(=O)[C@H](CC(C)C)NC(=O)[C@H](CCC(N)=O)NC(=O)CNC(=O)[C@@H]1C[C@@H](O)CN1)C(=O)N[C@@H](C)C(=O)NCC(=O)N1CCC[C@H]1C(=O)N[C@@H](CCCCN)C(=O)O [YDE-011] (H-[Hyp]GQLGLAGPK-OH) | 773.0 | 143.6 | 624.6 pg/mL and 730.3 pg/mL and 964.1 pg/mL | 138.8 pg/10^5 and 125.9 pg/10^5 and 166.2 pg/10^5 | 792.2 | 135.8 | 773.0 pg/mL and 753.6 pg/mL and 849.9 pg/mL | 124.7 pg/10^5 and 147.8 pg/10^5 and 134.9 pg/10^5 | 812.6 | 141.6 | 892.0 pg/mL and 753.6 pg/mL and 792.3 pg/mL | 135.1 pg/10^5 and 150.7 pg/10^5 and 139.0 pg/10^5 | 987.2 | 196.0 | 1088.2 pg/mL and 909.1 pg/mL and 964.1 pg/mL | 197.9 pg/10^5 and 189.4 pg/10^5 and 200.9 pg/10^5 | 841.5 | 158.5 | 973.6 pg/mL and 861.4 pg/mL and 689.4 pg/mL | 180.3 pg/10^5 and 148.5 pg/10^5 and 146.7 pg/10^5 | Concentration (IFN-gamma) [11]: 534.1 pg/mL; conc/live cell (IFN-gamma) [11]: 88.0 pg/10^5; Concentration (IFN-gamma) [12]: 604.8 pg/mL and 492.8 pg/mL and 504.9 pg/mL; conc/live cell (IFN-gamma) [12]: 99.1 pg/10^5 and 80.8 pg/10^5 and 84.1 pg/10^5
CC(C)C[C@H](NC(=O)[C@H](CCC(N)=O)NC(=O)CNC(=O)[C@@H]1C[C@@H](O)CN1)C(=O)NCC(=O)O [YDE-043] (H-[Hyp]GQLG-OH; N-terminus and C-terminus assumed) | 861.2 | 174.1 | 863.3 pg/mL and 945.2 pg/mL and 774.9 pg/mL | 196.2 pg/10^5 and 157.5 pg/10^5 and 168.5 pg/10^5 | 841.6 | 161.9 | 857.6 pg/mL and 792.3 pg/mL and 874.8 pg/mL | 190.6 pg/10^5 and 120.0 pg/10^5 and 175.0 pg/10^5 | 797.8 | 148.8 | 892.0 pg/mL and 628.5 pg/mL and 872.9 pg/mL | 178.4 pg/10^5 and 112.2 pg/10^5 and 155.9 pg/10^5 | 852.5 | 162.3 | 734.2 pg/mL and 834.6 pg/mL and 988.7 pg/mL | 126.6 pg/10^5 and 173.9 pg/10^5 and 186.5 pg/10^5 | 840.3 | 155.7 | 828.9 pg/mL and 826.9 pg/mL and 865.3 pg/mL | 159.4 pg/10^5 and 153.1 pg/10^5 and 154.5 pg/10^5 | Concentration (IFN-gamma) [11]: 462.3 pg/mL; conc/live cell (IFN-gamma) [11]: 73.4 pg/10^5; Concentration (IFN-gamma) [12]: 480.6 pg/mL and 444.0 pg/mL; conc/live cell (IFN-gamma) [12]: 77.5 pg/10^5 and 69.4 pg/10^5
